Results on five compounds are retold here after ChEMBL document CHEMBL3045367, “Preparation and testing of homocubyl amines as therapeutic NMDA receptor antagonists” (Med Chem Res, 2013).

Each structure is given as a SMILES string.

As a reminder, the IC50 is the concentration that gives 50% inhibition. Usually Ki stands for a dissociation constant, usually derived from enzyme kinetics or from competition with a known ligand. A higher Ki goes with weaker binding.

The assay in a line: Displacement of [3H](+)-MK-801 from N-methyl D-aspartate receptor in Rattus norvegicus (rat) forebrain membranes after 90 min. On the set-up: species or system Membrane.
As for `NC1C2C3C4C1C1C2C3C41` (stereo not given) [Homocubyl-9-amine], the half-maximal inhibitory concentration (IC50) was 843 µM and the Ki was determined as 615 µM.
In turn, `CC12CC3CC(C)(C1)CC(N)(C3)C2` [MEMANTINE] gave a half-maximal inhibitory concentration (IC50) of 1.56 µM and an inhibition constant (Ki) of 1.14 µM.
In the case of `NC1C2C3CC4C5CC(C1C53)C42` (stereo not given) [Trishomocubyl-4-amine], the 50% inhibitory concentration (IC50) is 89 µM and the affinity, expressed as Ki, was 65 µM.
As for `NC12C3C4C5C3C1C5C42` (stereo not given) [Cubylamine], the IC50 was found to be 259 µM and the Ki came out at 189 µM.
In turn, `NC1C2C3CC4C2C2C1C3C42` (stereo not given) [bishomocubyl-10-amine] came in with an IC50 of 152 µM and a Ki of 111 µM.
